pIC50: −log10 of the molar value. Where two headings read alike, the source gives them in different places.
Experiments:
[1] = biological target: CRBN/DDB1 (Homo sapiens (Human), UniProt Q96SW2); format: binding; conditions: His tagged CRBN+DDB1, Cy5-labeled Thalidomide probe, one hour; read-out: CRBN HTRF IC50
Method: The binding potency was determined using HTRF assay technology (Perkin Elmer). Compounds were serially diluted in DMSO and […] volume was transferred to white 384-well plate.

[2] = biological target: ER in MCF-7 cells (Homo sapiens (Human), UniProt P03372); test: In-cell Western (ICW) ER degradation assay in MCF-7 cells; format: cell-based; conditions: for DC50: MCF-7, ER degradation, read-out: MCF7 DC50
[3] = biological target: ER in T47D cells (Homo sapiens (Human), UniProt P03372); test: In-cell Western (ICW) ER degradation assay in T47D cells; format: cell-based; conditions: for DC50: ER degradation
[4] = tested on: MCF-7 cells; test: CellTiter-Glo (CTG) cell proliferation assay in MCF-7 cells; format: cell-based; conditions: Homo sapiens, MCF7, 144 h, MCF-7 cell proliferation, Day 6
Excerpt: CellTiter-Glo® (CTG) Assays in MCF-7 and T47D Cell Lines.
In vitro Assay: MCF-7 and T47D CTG assay

[5] = biological target: ERα_LBD (GST) (Homo sapiens (Human), UniProt P03372); test: IC50 measurements for binding to ERα_LBD (GST), LanthaScreen TR-FRET competitive binding; conditions: ERα_LBD (GST) 4 nM, Fluormone ES2 Green tracer, 60 min; read-out: ERα HTRF IC50
Method: In vitro Assay: IC50 Measurements for binding to ERα_LBD (GST) • Final assay conditions: • 1. ERα_LBD (GST) protein: 4 nM • 2. Tb Anti-GST: 2 nM • 3. Fluormone ES2 Green tracer: 3 nM • 4. Incubation time: 60 min • 5. DMSO: 1% • 6. Assay buffer: Adding 1M DTT to Nuclear receptor Buffer K for final 5 mM DTT. • 7. ZPE: 1% DMSO • 8. HPE: 1 μM ARV_471 (positive control) • 9. LanthaScreen® TR-FRET ERα Competitive Binding Assay (ThermoFisher, #A^15887) • 100× Compound preparation
1) Cherry pick 2 μL 10 mM compound stock to column 1 of a 384 intermediate plate. • 2) Add 18 μL DMSO to column 1 to dilute compound to 1 mM. • 3) Transfer 10 μL 1 mM compound to column 1 of a LDV plate. • 2) Add 6 μl DMSO to column 2-10 of the LDV plate. • 3) Compounds undergo 3-fold serial dilution (3 μL+6 μL) in DMSO. • 4) Transfer 120 nL compound solution to assay plate. ZPE: 120 nL 100% DMSO • Procedure:
Complete nuclear receptor buffer K was prepared by adding 1 M DTT to nuclear receptor buffer K for a final concentration of 5 mM DTT. Complete nuclear receptor buffer K must be prepared fresh daily, 2X protein solution was prepared using complete nuclear receptor buffer K containing 8 nM ERα_LBD (GST) and 4 nM Tb Anti-GST. Then, 2X Fluormone ES2 Green tracer (6 nM) was prepared using complete nuclear receptor buffer K. Add 6 μL 2X Fluormone ES2 green tracer into a compound plate (PerkinElmer 6008289) by dragonfly with one-tips-addition. Subsequently, 6 μL 2× protein solution was added into the plate. The 384-well plate was mixed on a plate shaker and incubated at room temperature protected from light for 60 min. The plate was scaled with a cover to minimize evaporation. The plate was read at wavelengths of 520 nm and 495 nm. The TR-FRET ratio was calculated by dividing the emission signal at 520 nm by the emission signal at 495 nm. A binding curve was generated by plotting the emission ratio vs, the log [ligand]. To determine the IC50 value, fit the data using XL-fit for a sigmoidal dose-response.

[6] = MCF7, MCF-7, maximal ER degradation, 16 hrs treatment, read-out: MCF7 Dmax
[7] = maximal ER degradation, 16 hrs treatment, read-out: T47D Dmax
[8] = MCF7, read-out: MCF7 Dmax, MCF-7, maximal ER degradation, 16 hrs treatment
[9] = read-out: T47D Dmax, T47D, maximal ER degradation, 16 hrs treatment

Sequence of ERα_LBD (GST) (P03372 311-547): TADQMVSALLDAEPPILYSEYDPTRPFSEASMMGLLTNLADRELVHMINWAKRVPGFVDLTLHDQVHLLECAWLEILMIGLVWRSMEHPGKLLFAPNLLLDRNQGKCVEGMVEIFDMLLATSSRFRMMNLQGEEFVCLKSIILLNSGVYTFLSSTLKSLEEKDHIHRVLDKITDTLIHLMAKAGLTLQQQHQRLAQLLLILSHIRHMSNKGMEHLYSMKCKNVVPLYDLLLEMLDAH
Sequence of ER in MCF-7 cells (P03372 whole entry): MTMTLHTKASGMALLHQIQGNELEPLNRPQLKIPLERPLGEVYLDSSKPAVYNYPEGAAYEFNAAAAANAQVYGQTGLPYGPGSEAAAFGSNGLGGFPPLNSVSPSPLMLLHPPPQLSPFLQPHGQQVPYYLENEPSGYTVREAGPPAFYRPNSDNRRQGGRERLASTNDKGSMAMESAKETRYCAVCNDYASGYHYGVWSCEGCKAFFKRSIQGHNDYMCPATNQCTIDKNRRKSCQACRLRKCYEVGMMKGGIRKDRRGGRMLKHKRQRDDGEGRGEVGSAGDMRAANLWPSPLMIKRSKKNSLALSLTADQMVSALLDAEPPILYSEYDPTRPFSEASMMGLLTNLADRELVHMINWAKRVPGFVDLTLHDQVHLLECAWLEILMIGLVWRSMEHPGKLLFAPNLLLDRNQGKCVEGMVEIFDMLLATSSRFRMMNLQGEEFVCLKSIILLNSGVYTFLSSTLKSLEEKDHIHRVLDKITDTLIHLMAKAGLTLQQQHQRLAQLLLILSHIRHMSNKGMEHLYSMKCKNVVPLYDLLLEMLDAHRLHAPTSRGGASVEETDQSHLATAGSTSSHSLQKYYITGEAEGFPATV
Sequence of ER in T47D cells (P03372 whole entry): as above
Sequence of CRBN/DDB1 (Q96SW2 whole entry, species assumed): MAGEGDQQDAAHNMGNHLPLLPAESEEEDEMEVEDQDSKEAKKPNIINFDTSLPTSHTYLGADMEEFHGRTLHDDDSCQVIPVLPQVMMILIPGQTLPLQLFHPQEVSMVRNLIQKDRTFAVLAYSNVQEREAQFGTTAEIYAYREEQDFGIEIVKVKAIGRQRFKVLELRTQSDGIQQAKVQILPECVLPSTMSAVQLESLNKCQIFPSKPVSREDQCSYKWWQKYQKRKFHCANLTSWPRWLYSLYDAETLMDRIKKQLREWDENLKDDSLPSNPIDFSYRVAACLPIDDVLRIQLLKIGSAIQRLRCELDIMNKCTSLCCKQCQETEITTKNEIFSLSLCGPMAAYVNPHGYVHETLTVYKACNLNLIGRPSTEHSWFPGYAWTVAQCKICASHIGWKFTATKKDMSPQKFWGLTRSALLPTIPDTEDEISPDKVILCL
Sequence of CRBN/DDB1 (Q16531 whole entry partner, species assumed): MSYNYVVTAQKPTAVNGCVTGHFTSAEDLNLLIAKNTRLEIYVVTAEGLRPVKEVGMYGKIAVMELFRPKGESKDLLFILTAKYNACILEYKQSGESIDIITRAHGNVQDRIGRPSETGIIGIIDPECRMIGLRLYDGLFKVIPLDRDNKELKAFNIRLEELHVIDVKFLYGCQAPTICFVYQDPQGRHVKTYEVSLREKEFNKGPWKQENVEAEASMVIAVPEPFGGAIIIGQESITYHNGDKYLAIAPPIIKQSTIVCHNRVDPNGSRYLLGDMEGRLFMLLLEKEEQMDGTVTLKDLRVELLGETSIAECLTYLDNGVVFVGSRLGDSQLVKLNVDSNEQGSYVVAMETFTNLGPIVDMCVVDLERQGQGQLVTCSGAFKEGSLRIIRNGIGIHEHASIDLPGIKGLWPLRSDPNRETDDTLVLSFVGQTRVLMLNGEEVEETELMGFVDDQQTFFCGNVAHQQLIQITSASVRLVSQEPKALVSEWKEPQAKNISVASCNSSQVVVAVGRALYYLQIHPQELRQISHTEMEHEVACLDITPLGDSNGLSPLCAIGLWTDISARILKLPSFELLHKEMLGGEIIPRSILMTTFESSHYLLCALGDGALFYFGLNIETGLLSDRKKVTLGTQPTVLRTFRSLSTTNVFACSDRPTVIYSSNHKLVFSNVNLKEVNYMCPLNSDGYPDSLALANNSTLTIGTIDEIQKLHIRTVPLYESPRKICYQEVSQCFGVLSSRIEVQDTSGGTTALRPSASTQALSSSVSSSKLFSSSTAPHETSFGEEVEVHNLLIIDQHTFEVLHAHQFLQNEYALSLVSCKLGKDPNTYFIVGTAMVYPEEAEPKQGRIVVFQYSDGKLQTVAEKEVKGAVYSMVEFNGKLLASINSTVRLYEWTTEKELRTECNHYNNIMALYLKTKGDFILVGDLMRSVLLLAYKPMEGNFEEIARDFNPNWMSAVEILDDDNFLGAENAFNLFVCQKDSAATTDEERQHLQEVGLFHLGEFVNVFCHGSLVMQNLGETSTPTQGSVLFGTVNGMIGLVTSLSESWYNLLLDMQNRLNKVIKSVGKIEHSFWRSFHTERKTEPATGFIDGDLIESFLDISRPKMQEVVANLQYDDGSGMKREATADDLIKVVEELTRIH

Row | Compound | pIC50 [1] | Dmax [2, 6] [%] | DC50 ([2]; 16 hrs treatment) [nM] | DC50 ([3]; 16 hrs treatment) [nM] | Dmax [3, 7] [%] | pIC50 [4] | pIC50 [5] | Dmax [2, 8] [%] | Dmax [3, 9] [%] | MCF7 Dmax ([2]; MCF-7, maximal ER degradation, 16 hrs treatment)
1 | COc1cc(N2CCC3(CC2)CC(CN2CCN4c5cc6c(cc5OC[C@@H]4C2)C(=O)N([C@H]2CCC(=O)NC2=O)C6)C3)ccc1[C@@H]1c2ccc(O)cc2CC[C@@H]1c1ccccc1 (single isomer, unassigned) [Compound A12] | 6.30 to 7.30 | > 75 | < 1 | < 1 | > 75 | 7.00 to 8.00 |  |  |  | 
2 | COc1cc(N2CCC3(CC2)CC(CN2CCC(c4ccc(N[C@H]5CCC(=O)NC5=O)cc4)CC2)C3)c(F)cc1[C@@H]1c2ccc(O)cc2CC[C@@H]1c1ccccc1 (single isomer, unassigned) [Compound A30] |  | 50 to 75 | < 1 | < 1 | > 75 |  | > 8.00 |  |  | 
3 | COc1cc(N2CCC3(CC2)CC(CN2CCC(c4ccc(N[C@H]5CCC(=O)NC5=O)cc4)CC2)C3)c(F)cc1[C@H]1c2ccc(O)cc2CC[C@H]1c1ccccc1 (single isomer, unassigned) [Compound A32] |  | 50 to 75 | 10 to 100 | 10 to 100 | 50 to 75 |  | < 7.00 |  |  | 
4 | COc1cc(N2CCC3(CC2)CC(CN2CCN4c5ccc6c(c5OC[C@H]4C2)CN([C@H]2CCC(=O)NC2=O)C6=O)CO3)ccc1[C@H]1c2ccc(O)cc2CC[C@H]1c1ccccc1 (single isomer, unassigned) [Compound A52] |  |  | < 1 | < 1 |  |  | > 8.00 | 50 to 75 | > 75 | 
5 | COc1cc(N2CCC3(CC2)CC(CN2CCN4c5cc6c(cc5OC[C@@H]4C2)C(=O)N([C@H]2CCC(=O)NC2=O)C6)CO3)ccc1[C@H]1c2ccc(O)cc2CC[C@H]1c1ccccc1 (single isomer, unassigned) [Compound A56] |  |  | < 1 | < 1 |  |  | > 8.00 | 50 to 75 | > 75 | 
6 | O=C1CC[C@@H](Nc2ccc(C3CCN(CC4CCC5(CC4)CN(c4ccc([C@@H]6c7ccc(O)cc7CC[C@@H]6c6ccccc6)cc4)C5)CC3)cc2)C(=O)N1 (single isomer, unassigned) [Compound A65] | 6.30 to 7.30 | 50 to 75 | 1 to 10 | < 1 | > 75 | 7.00 to 8.00 |  |  |  | 
7 | O=C1CC[C@H](N2Cc3c(ccc4c3OC[C@H]3CN(CC5CCC6(CC5)CN(c5ccc([C@@H]7c8ccc(O)cc8CC[C@@H]7c7ccccc7)cn5)C6)CCN43)C2=O)C(=O)N1 (single isomer, unassigned) [Compound A123] |  | > 75 |  |  | > 75 |  | > 8.00 |  |  | 
8 | COc1cc(N2CCC3(CC2)C[C@H](CN2CCN4c5ccc6c(c5OC[C@H]4C2)CN([C@H]2CCC(=O)NC2=O)C6=O)CO3)ccc1[C@@H]1c2ccc(O)cc2CC[C@@H]1c1ccccc1 (single isomer, unassigned) [Compound A133] |  | > 75 | < 1 |  |  |  | > 8.00 |  |  | 
9 | COc1cc(N2CCC3(CC2)C[C@@H](CN2CCN4c5ccc6c(c5OC[C@H]4C2)CN([C@H]2CCC(=O)NC2=O)C6=O)CO3)ccc1[C@@H]1c2ccc(O)cc2CC[C@@H]1c1ccccc1 (single isomer, unassigned) [Compound A134] |  | > 75 | < 1 |  |  |  | > 8.00 |  |  | 
10 | COc1cc(N2CCC(CN3CCC4(CC3)COc3cc5c(cc34)CN([C@H]3CCC(=O)NC3=O)C5=O)CC2)ccc1[C@@H]1c2ccc(O)cc2CC[C@@H]1c1ccccc1 [Compound A33, (R)-3-(1′-((1-(4-((1R,2R)-6-hydroxy-2-phenyl-1,2,3,4-tetrahydronaphthalen-1-yl)-3-methoxyphenyl)piperidin-4-yl)methyl)-7-oxo-5,7-dihydro-2H,6H-spiro[furo[2,3-f]iso-indole-3,4′-piperidin]-6-yl)-piperidine-2,6-dione] |  |  | < 1 | < 1 |  |  | > 8.00 | 50 to 75 | 50 to 75 | 
11 | COc1cc(N2CCC(CN3CCN4c5cc6c(cc5OC[C@@H]4C3)C(=O)N([C@H]3CCC(=O)NC3=O)C6)CC2)c(F)cc1[C@@H]1c2ccc(O)cc2CC[C@@H]1c1ccccc1 [Compound A91, (S)-3-((S)-3-((1-(2-fluoro-4-((1S,2S)-6-hydroxy-2-phenyl-1,2,3,4-tetrahydronaphthalen-1-yl)-5-methoxyphenyl)piperidin-4-yl)methyl)-8-oxo-3,4,4a,5-tetrahydro-1H-pyrazino[1′,2′: 4,5][1,4]oxazino[2,3-f]isoindol-9 (2H,8H,10H)-yl)piperidine-2,6-dione] |  | > 75 | < 1 | < 1 | > 75 |  | > 8.00 |  |  | 
12 | COc1cc(N2CCC3(CC2)CC(CN2CCN4c5cc6c(cc5OC[C@@H]4C2)C(=O)N([C@H]2CCC(=O)NC2=O)C6)C3)c(F)cc1[C@@H]1c2ccc(O)cc2CC[C@@H]1c1ccccc1 [Compound A101, (S)-3-((S)-3-((7-(2-fluoro-4-((1S,2S)-6-hydroxy-2-phenyl-1,2,3,4-tetrahydronaphthalen-1-yl)-5-methoxyphenyl)-7-azaspiro[3.5]nonan-2-yl)methyl)-8-oxo-1,2,3,4,4a,5,8,10-octahydro-9H-pyrazino[1′,2′: 4,5][1,4]oxazino[2,3-f]isoindol-9-yl)piperidine-2,6-dione] |  | > 75 | < 1 |  |  |  | > 8.00 |  |  | 
13 | COc1cc2c(c3c1C(=O)N([C@H]1CCC(=O)NC1=O)C3)OCC21CCN(C[C@H]2CCC3(CCN(c4ccc([C@@H]5c6ccc(O)cc6CC[C@@H]5c5ccccc5)cc4)CC3)OC2)CC1 [Compound A235, (S)-3-(1′-(((R)-9-(4-((1R,2S)-6-hydroxy-2-phenyl-1,2,3,4-tetrahydronaphthalen-1-yl)phenyl)-1-oxa-9-azaspiro[5.5]undecan-3-yl)methyl)-5-methoxy-6-oxo-6,8-dihydro-2H,7H-spiro[furo[2,3-e]isoindole-3,4′-piperidin]-7-yl)piperidine-2,6-dione] |  |  | < 1 |  |  | > 8.00 |  | > 75 |  | 
14 | COc1cc2c(c3c1C(=O)N([C@H]1CCC(=O)NC1=O)C3)OCC21CCN(C[C@@H]2CCC3(CCN(c4ccc([C@@H]5c6ccc(O)cc6CC[C@@H]5c5ccccc5)cc4)CC3)OC2)CC1 [Compound A236, (S)-3-(1′-(((S)-9-(4-((1R,2S)-6-hydroxy-2-phenyl-1,2,3,4-tetrahydronaphthalen-1-yl)phenyl)-1-oxa-9-azaspiro[5.5]undecan-3-yl)methyl)-5-methoxy-6-oxo-6,8-dihydro-2H,7H-spiro[furo[2,3-e]isoindole-3,4′-piperidin]-7-yl)piperidine-2,6-dione] |  |  | < 1 |  |  | 7.00 to 8.00 |  | > 75 |  | 
15 | (S)-3-(1′-((2-(2-fluoro-4-((1S,2S)-6-hydroxy-2-phenyl-1,2,3,4-tetrahydronaphthalen-1-yl)-5-methoxyphenyl)-2-azaspiro[3.5]nonan-7-yl)methyl)-7-oxo-5,7-dihydro-2H,6H-spiro[furo[2,3-f]isoindole-3,4′-piperidin]-6-yl)piperidine-2,6-dione [Compound A166] |  |  | < 1 |  |  |  | > 8.00 |  |  | B (“B”: >50 and <75%)

Reference: patent US20260028354A1, “TETRAHYDRONAPHTHALENE DERIVATIVES AS ESTROGEN RECEPTOR DEGRADERS” (REGENT OF THE UNIVERSITY OF MICHIGAN, priority 2022, published 2026)
